Source: patent publication US20230278972A1, “SUBSTITUTED HALOALKYL SULFONANILIDE HERBICIDES” (FMC Corporation, priority 2020, published 2023)

Tests used:
Format in all cases: in vivo
[1] = tested on: pigweed (Amaranthus retroflexus); assay: Test A postemergence, pigweed; conditions: Postemergence, 0 to 100 scale (0 no effect, 100 complete control); for Pigweed plant response rating: visual injury vs untreated controls after approx. 10 days
How it was run: (§1)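 Compounds in non-phytotoxic solvent with surfactant. Soil: loam/sand. Preemergence via directed soil spray after seeding; postemergence on seedlings 2–10 cm, one- to two-leaf.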

[2] = tested on: barnyardgrass (Echinochloa crus-galli); assay: Test A postemergence, barnyardgrass; conditions: Postemergence, 0 to 100 scale (0 no effect, 100 complete control); for Barnyardgrass plant response rating: visual injury vs untreated controls after approx. 10 days
How it was run: as §1

[3] = tested on: barnyardgrass (Echinochloa crus-galli); assay: Test A preemergence, barnyardgrass; conditions: Preemergence; for Barnyardgrass plant response rating: visual injury on 0 to 100 scale (0 no effect, 100 complete control), approximately 10 days; for Plant response rating, Barnyardgrass: 0 to 100 scale (0 no effect, 100 complete control)
How it was run: as §1

corn (Zea mays) = assay: Test A postemergence, corn; conditions: Postemergence, 0 to 100 scale (0 no effect, 100 complete control); for Corn plant response rating: visual injury vs untreated controls after approx. 10 days
How it was run: as §1

[4] = tested on: blackgrass (Alopecurus myosuroides); assay: Test A postemergence, blackgrass; conditions: Postemergence, 0 to 100 scale (0 no effect, 100 complete control); for Blackgrass plant response rating: visual injury vs untreated controls after approx. 10 days
How it was run: as §1

[5] = tested on: ragweed (common ragweed, Ambrosia artemisiifolia); assay: Test A postemergence, ragweed; conditions: Postemergence, 0 to 100 scale (0 no effect, 100 complete control); for Ragweed plant response rating: visual injury vs untreated controls after approx. 10 days
How it was run: as §1

[6] = tested on: wheat (Triticum aestivum); assay: Test A postemergence, wheat; conditions: Postemergence, 0 to 100 scale (0 no effect, 100 complete control); for Wheat plant response rating: visual injury vs untreated controls after approx. 10 days
How it was run: as §1

kochia (Bassia scoparia) [7] = assay: Test A postemergence, kochia; conditions: Postemergence, 0 to 100 scale (0 no effect, 100 complete control); for Kochia plant response rating: visual injury vs untreated controls after approx. 10 days
How it was run: as §1

[8] = tested on: Ryegrass, Italian (Italian ryegrass, Lolium multiflorum); assay: Test A postemergence, Ryegrass, Italian; conditions: Postemergence, 0 to 100 scale (0 no effect, 100 complete control); for Ryegrass, Italian plant response rating: visual injury vs untreated controls after approx. 10 days
How it was run: as §1

[9] = tested on: Foxtail, Giant (giant foxtail, Setaria faberi); assay: Test A preemergence, Foxtail, Giant; conditions: Preemergence; for Foxtail, Giant plant response rating: visual injury on 0 to 100 scale (0 no effect, 100 complete control), approximately 10 days; for Plant response rating, Foxtail, Giant: 0 to 100 scale (0 no effect, 100 complete control)
How it was run: as §1

kochia (Bassia scoparia) [10] = assay: Test A preemergence, kochia; conditions: Preemergence; for Kochia plant response rating: visual injury on 0 to 100 scale (0 no effect, 100 complete control), approximately 10 days; for Plant response rating, Kochia: 0 to 100 scale (0 no effect, 100 complete control)
How it was run: as §1

[11] = tested on: galium (catchweed bedstraw, Galium aparine); assay: Test A postemergence, galium; conditions: Postemergence, 0 to 100 scale (0 no effect, 100 complete control); for Galium plant response rating: visual injury vs untreated controls after approx. 10 days
How it was run: as §1

[12] = tested on: pigweed (Amaranthus retroflexus); assay: Test A preemergence, pigweed; conditions: for Pigweed plant response rating: visual injury on 0 to 100 scale (0 no effect, 100 complete control), approximately 10 days; for Plant response rating, Pigweed: 0 to 100 scale (0 no effect, 100 complete control)
How it was run: as §1

[13] = tested on: ragweed (common ragweed, Ambrosia artemisiifolia); assay: Test A preemergence, ragweed; conditions: Preemergence; for Ragweed plant response rating: visual injury on 0 to 100 scale (0 no effect, 100 complete control), approximately 10 days; for Plant response rating, Ragweed: 0 to 100 scale (0 no effect, 100 complete control)
How it was run: as §1

[14] = tested on: Foxtail, Giant (giant foxtail, Setaria faberi); assay: Test A postemergence, Foxtail, Giant; conditions: Postemergence, 0 to 100 scale (0 no effect, 100 complete control); for Foxtail, Giant plant response rating: visual injury vs untreated controls after approx. 10 days
How it was run: as §1

[15] = tested on: Ryegrass, Italian (Italian ryegrass, Lolium multiflorum); assay: Test A preemergence, Ryegrass, Italian; conditions: Preemergence; for Ryegrass, Italian plant response rating: visual injury on 0 to 100 scale (0 no effect, 100 complete control), approximately 10 days; for Plant response rating, Ryegrass, Italian: 0 to 100 scale (0 no effect, 100 complete control)
How it was run: as §1

[16] = 125 g ai/ha, visual injury approx. 10 days
[17] = 500 g ai/ha, visual injury, approx. 10 days
[18] = 500 g ai/ha, visual injury approx. 10 days
[19] = 125 g ai/ha, visual injury, approx. 10 days

Cc1cc(C)c(-c2ccnn(CC(C)C)c2=O)cc1NS(=O)(=O)C(F)(F)F [Compound 77]
20: Barnyardgrass plant response rating ([2]; 500 g ai/ha) | Pigweed plant response rating ([12]; 125 g ai/ha) | Plant response rating, Ragweed ([13]; 500 g ai/ha)
70: Wheat plant response rating ([6]; 500 g ai/ha)
90: Barnyardgrass plant response rating ([3]; 125 g ai/ha) | Plant response rating, Barnyardgrass ([3]; 500 g ai/ha) | Foxtail, Giant plant response rating ([9]; 125 g ai/ha) | Plant response rating, Ryegrass, Italian ([15]; 500 g ai/ha)
60: Corn plant response rating (corn (Zea mays); 500 g ai/ha)
10: Ragweed plant response rating ([5]; 500 g ai/ha) | Kochia plant response rating (kochia (Bassia scoparia) [7]; 500 g ai/ha)
30: Plant response rating, Pigweed ([12]; 500 g ai/ha)
0: Plant response rating, Pigweed [1, 16] | Pigweed plant response rating ([1]; 500 g ai/ha) | Plant response rating, Barnyardgrass [2, 16] | Plant response rating, Corn (corn (Zea mays); [16]) | Plant response rating, Blackgrass [4, 16] | Blackgrass plant response rating ([4]; 500 g ai/ha) | Plant response rating, Ragweed [5, 16] | Plant response rating, Wheat [6, 16] | Plant response rating, Kochia (kochia (Bassia scoparia) [7]; [16]) | Plant response rating, Ryegrass, Italian [8, 16] | Ryegrass, Italian plant response rating ([8]; 500 g ai/ha) | Kochia plant response rating (kochia (Bassia scoparia) [10]; 125 g ai/ha) | Plant response rating, Kochia (kochia (Bassia scoparia) [10]; 500 g ai/ha) | Plant response rating, Galium [11, 16] | Ragweed plant response rating ([13]; 125 g ai/ha) | Plant response rating, Foxtail, Giant [14, 16] | Ryegrass, Italian plant response rating ([15]; 125 g ai/ha)
100: Plant response rating, Foxtail, Giant ([9]; 500 g ai/ha)
40: Galium plant response rating ([11]; 500 g ai/ha) | Foxtail, Giant plant response rating ([14]; 500 g ai/ha)

Cc1cc(C)c(C(=O)N2CC(C)OC(C)C2)cc1NS(=O)(=O)C(F)(F)F (stereo not shown) [Compound 9]
20: Plant response rating, Foxtail, Giant [14, 16]
0: Plant response rating, Corn (corn (Zea mays); [16])
70: Plant response rating, Corn (corn (Zea mays); [17]) | Plant response rating, Ragweed [5, 16] | Plant response rating, Wheat [6, 17] | Plant response rating, Ryegrass, Italian [8, 16] | Kochia plant response rating (kochia (Bassia scoparia) [10]; 125 g ai/ha)
60: Plant response rating, Pigweed [1, 16] | Plant response rating, Wheat [6, 16]
90: Plant response rating, Barnyardgrass [2, 17] | Plant response rating, Kochia (kochia (Bassia scoparia) [10]; 500 g ai/ha) | Plant response rating, Galium [11, 17] | Ragweed plant response rating ([13]; 125 g ai/ha) | Plant response rating, Ragweed ([13]; 500 g ai/ha) | Plant response rating, Foxtail, Giant [14, 17] | Ryegrass, Italian plant response rating ([15]; 125 g ai/ha)
30: Plant response rating, Blackgrass [4, 16] | Plant response rating, Blackgrass [4, 17] | Plant response rating, Kochia (kochia (Bassia scoparia) [7]; [17]) | Pigweed plant response rating ([12]; 125 g ai/ha)
10: Plant response rating, Kochia (kochia (Bassia scoparia) [7]; [16])
100: Barnyardgrass plant response rating ([3]; 125 g ai/ha) | Plant response rating, Barnyardgrass ([3]; 500 g ai/ha) | Plant response rating, Foxtail, Giant ([9]; 500 g ai/ha) | Plant response rating, Ryegrass, Italian ([15]; 500 g ai/ha)
80: Plant response rating, Pigweed [1, 17] | Plant response rating, Barnyardgrass [2, 16] | Plant response rating, Ragweed [5, 17] | Plant response rating, Ryegrass, Italian [8, 17] | Foxtail, Giant plant response rating ([9]; 125 g ai/ha) | Plant response rating, Galium [11, 16] | Plant response rating, Pigweed ([12]; 500 g ai/ha)

Cc1cc(C)c(N2CC3(CCCCC3)OC2=O)cc1NS(=O)(=O)C(F)(F)F [Compound 279]
30: Plant response rating, Foxtail, Giant [14, 18]
100: Plant response rating, Barnyardgrass [3, 19] | Barnyardgrass plant response rating ([3]; 500 g ai/ha) | Plant response rating, Foxtail, Giant [9, 19] | Foxtail, Giant plant response rating ([9]; 500 g ai/ha) | Pigweed plant response rating ([12]; 500 g ai/ha) | Plant response rating, Ragweed [13, 19] | Ragweed plant response rating ([13]; 500 g ai/ha) | Ryegrass, Italian plant response rating ([15]; 500 g ai/ha)
10: Plant response rating, Foxtail, Giant ([14]; 125 g ai/ha)
90: Plant response rating, Ragweed [5, 18] | Kochia plant response rating (kochia (Bassia scoparia) [10]; 500 g ai/ha) | Plant response rating, Galium ([11]; 125 g ai/ha) | Plant response rating, Galium [11, 18] | Plant response rating, Pigweed [12, 19] | Plant response rating, Ryegrass, Italian [15, 19]
80: Plant response rating, Pigweed [1, 18] | Plant response rating, Barnyardgrass [2, 18] | Plant response rating, Ragweed ([5]; 125 g ai/ha) | Plant response rating, Kochia (kochia (Bassia scoparia) [10]; [19])
40: Plant response rating, Kochia (kochia (Bassia scoparia) [7]; 125 g ai/ha)
20: Plant response rating, Barnyardgrass ([2]; 125 g ai/ha) | Plant response rating, Corn (corn (Zea mays); 125 g ai/ha) | Plant response rating, Corn (corn (Zea mays); [18]) | Plant response rating, Blackgrass [4, 18]
0: Plant response rating, Blackgrass ([4]; 125 g ai/ha) | Plant response rating, Wheat ([6]; 125 g ai/ha) | Plant response rating, Ryegrass, Italian ([8]; 125 g ai/ha)
60: Plant response rating, Ryegrass, Italian [8, 18]
50: Plant response rating, Pigweed ([1]; 125 g ai/ha) | Plant response rating, Kochia (kochia (Bassia scoparia) [7]; [18])
70: Plant response rating, Wheat [6, 18]

Cc1cc(Cl)c(N(S(=O)(=O)C(F)(F)F)S(=O)(=O)C(F)(F)F)cc1C1=NOC(C)(C)C1 [Compound 222]
30: Plant response rating, Ryegrass, Italian [15, 19]
100: Plant response rating, Pigweed ([12]; 500 g ai/ha)
90: Plant response rating, Barnyardgrass ([3]; 500 g ai/ha) | Ragweed plant response rating ([5]; 500 g ai/ha) | Plant response rating, Galium ([11]; 125 g ai/ha) | Galium plant response rating ([11]; 500 g ai/ha) | Plant response rating, Ragweed ([13]; 500 g ai/ha)
50: Plant response rating, Ragweed ([5]; 125 g ai/ha) | Kochia plant response rating (kochia (Bassia scoparia) [7]; 500 g ai/ha) | Plant response rating, Foxtail, Giant ([9]; 500 g ai/ha) | Plant response rating, Pigweed [12, 19]
10: Plant response rating, Barnyardgrass ([2]; 125 g ai/ha) | Plant response rating, Kochia (kochia (Bassia scoparia) [7]; 125 g ai/ha) | Foxtail, Giant plant response rating ([14]; 500 g ai/ha)
70: Barnyardgrass plant response rating ([2]; 500 g ai/ha) | Wheat plant response rating ([6]; 500 g ai/ha)
60: Plant response rating, Ragweed [13, 19]
20: Plant response rating, Pigweed ([1]; 125 g ai/ha) | Plant response rating, Blackgrass ([4]; 125 g ai/ha) | Blackgrass plant response rating ([4]; 500 g ai/ha)
40: Pigweed plant response rating ([1]; 500 g ai/ha) | Plant response rating, Foxtail, Giant [9, 19] | Plant response rating, Kochia (kochia (Bassia scoparia) [10]; 500 g ai/ha)
80: Plant response rating, Ryegrass, Italian ([15]; 500 g ai/ha)
0: Plant response rating, Corn (corn (Zea mays); 125 g ai/ha) | Corn plant response rating (corn (Zea mays); 500 g ai/ha) | Plant response rating, Wheat ([6]; 125 g ai/ha) | Plant response rating, Ryegrass, Italian ([8]; 125 g ai/ha) | Ryegrass, Italian plant response rating ([8]; 500 g ai/ha) | Plant response rating, Kochia (kochia (Bassia scoparia) [10]; [19]) | Plant response rating, Foxtail, Giant ([14]; 125 g ai/ha)
